Data reported in ChEMBL document CHEMBL1201862, “PubChem BioAssay data set” (2004).
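Step 1: Grow cells in 96-well plates. Step 2: Expose to compound for 48 hours at 5 concentrations. Step 3: Interpolate endpoints linearly; if unreached, use highest concentration. At the GI50, growth is halved.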 Activity calls are given as the source filed them. Cut-off read from the data, not from the text of the source: active = GI50 up to about 1.1 µM and inactive = higher.

Columns and labels:
Experiment in all cases: DTP human tumour cell line panel, 48 h
[1] = tested on: SK-MEL-28
[2] = tested on: COLO 205
[3] = tested on: ACHN
[4] = tested on: SNB-75
[5] = tested on: NCI-H23
[6] = tested on: LOX IMVI
[7] = tested on: SR
[8] = tested on: PC-3
[9] = tested on: HCT-116
[10] = tested on: HOP-92
[11] = tested on: CCRF-CEM
[12] = tested on: HOP-62
[13] = tested on: IGROV-1
[14] = tested on: BT-549
[15] = tested on: SK-MEL-2
[16] = tested on: RXF 393
[17] = tested on: OVCAR-5
[18] = tested on: OVCAR-8
[19] = tested on: K562
[20] = tested on: NCI/ADR-RES

Row | SMILES | GI50 [1] | GI50 [2] | GI50 [3] | GI50 [4] | GI50 [5] | GI50 [6] | GI50 [7] | GI50 [8] | GI50 [9] | GI50 [10] | GI50 [11] | GI50 [12] | GI50 [13] | GI50 [14] | GI50 [15] | GI50 [16] | GI50 [17] | GI50 [18] | GI50 [19] | GI50 [20]
1 | Cc1cc(=O)oc2cc(OS(C)(=O)=O)ccc12 | > 100 µM (inactive) | > 100 µM (inactive) | > 100 µM (inactive) | > 100 µM (inactive) | > 100 µM (inactive) | > 100 µM (inactive) | > 100 µM (inactive) | > 100 µM (inactive) | > 100 µM (inactive) | > 100 µM (inactive) | > 100 µM (inactive) | > 100 µM (inactive) | > 100 µM (inactive) | > 100 µM (inactive) | > 100 µM (inactive) | > 100 µM (inactive) | > 100 µM (inactive) | > 100 µM (inactive) | > 100 µM (inactive) | > 100 µM (inactive)
2 | CC(CSc1nc2c(c(=N)n1-c1ccccc1)c(=S)n(-c1ccccc1)c(=S)n2-c1ccccc1)CN(C)C (stereo not given) | 2.12 µM (inactive) | 1.83 µM (inactive) | 1.76 µM (inactive) | 1.78 µM (inactive) | 2.2 µM (inactive) | 1.05 µM (active) | 0.558 µM (active) | 1.87 µM (inactive) | 1.67 µM (inactive) | 1.56 µM (inactive) | 0.289 µM (active) | 1.88 µM (inactive) | 1.4 µM (inactive) | 1.78 µM (inactive) | 2.45 µM (inactive) | 1.59 µM (inactive) | 13.6 µM (inactive) | 1.6 µM (inactive) | 1.07 µM (active) | 3.08 µM (inactive)
3 | Cc1ccc(OCC2OC(n3cnc4c(Cl)nc(N)nc43)CC2Oc2ccc(C)cc2)cc1 (stereo not given) | > 51.4 µM (inactive) | 68.4 µM (inactive) | 15.6 µM (inactive) | > 70.8 µM (inactive) | 19.2 µM (inactive) | 47.9 µM (inactive) | 36 µM (inactive) | 35.4 µM (inactive) | 47.5 µM (inactive) | 11 µM (inactive) | > 74.6 µM (inactive) | > 36.1 µM (inactive) | 19.4 µM (inactive) | 43.3 µM (inactive) | > 38.1 µM (inactive) | 39.9 µM (inactive) | 34.3 µM (inactive) | 31.9 µM (inactive) | 29.4 µM (inactive) | 34.4 µM (inactive)
4 | CCOc1ccc2c(C)cc(=O)oc2c1 | > 100 µM (inactive) | > 100 µM (inactive) | > 100 µM (inactive) | > 100 µM (inactive) | > 100 µM (inactive) | > 100 µM (inactive) | > 100 µM (inactive) | > 100 µM (inactive) | > 100 µM (inactive) | > 100 µM (inactive) | > 100 µM (inactive) | > 100 µM (inactive) | > 100 µM (inactive) | > 100 µM (inactive) | > 100 µM (inactive) | > 100 µM (inactive) | > 100 µM (inactive) | > 100 µM (inactive) | > 100 µM (inactive) | > 100 µM (inactive)
5 | CC(C)NC(=O)OCc1c(COC(=O)NC(C)C)c(-c2ccc[n+](COC(=O)C3CCCCC3)c2)n2c1CCC2 | > 100 µM (inactive) | 93.1 µM (inactive) | 27.3 µM (inactive) | 46.8 µM (inactive) | 28.6 µM (inactive) | 31.6 µM (inactive) | > 100 µM (inactive) | 48.6 µM (inactive) | 56.4 µM (inactive) | 39.4 µM (inactive) | > 100 µM (inactive) | 37.7 µM (inactive) | > 100 µM (inactive) | 48.1 µM (inactive) | 44.6 µM (inactive) | 38.9 µM (inactive) | 78.3 µM (inactive) | 51.2 µM (inactive) | > 100 µM (inactive) | 60 µM (inactive)
6 | O=C(CC1(O)C(=O)Nc2c(Cl)ccc(Cl)c21)c1ccco1 (stereo not given) | 19.5 µM (inactive) | 17.5 µM (inactive) | 20.5 µM (inactive) | 27 µM (inactive) | 15.2 µM (inactive) | 10.9 µM (inactive) | 4.38 µM (inactive) | 28.2 µM (inactive) | 14 µM (inactive) | 22.3 µM (inactive) | 5.09 µM (inactive) | 29.6 µM (inactive) | 18.3 µM (inactive) | 36.5 µM (inactive) | 26.1 µM (inactive) | 19.4 µM (inactive) | 20.9 µM (inactive) | 27.2 µM (inactive) | > 10 µM (inactive) | 23.7 µM (inactive)
